Source: patent US6670363B1, “Azole compounds as therapeutic agents for fungal infections” (Ranbaxy Laboratories Limited, priority 2000, dated 2003)
Values after ≈ are worked out from the molar mass of the structure shown.

Columns and labels:
[1] = tested on: Cryptococcus neoformans; assay: In vitro MIC, NCCLS M27A, Cryptococcus neoformans; format: cell-based; parameters: MIC, C. neoformans I: unit not given beside the values; MIC, C. neoformans M 106: unit not given here; conditions: for MIC, C. neoformans I: C. neoformans strain I; for MIC, C. neoformans M 106: C. neoformans strain M 106
[2] = tested on: Histoplasma capsulatum; format: cell-based
[3] = tested on: Candida; assay: In vitro MIC, NCCLS M27A, Candida species; format: cell-based; parameters: MIC, Candida albicans 1.549 / MIC, Candida albicans Y-01-19 / MIC, C. krusei 766-1 / MIC, C. krusei Q. C / MIC, Candida tropicalis ATCC / MIC, C. glabrata 90030: unit not given beside the values; MIC, Candida albicans A 26 / MIC, C. parapsilosis Q. C.: unit not given here; conditions: for MIC, C. glabrata 90030: C. glabrata strain 90030; for MIC, C. krusei 766-1: C. krusei strain 766-1; for MIC, C. krusei Q. C: C. krusei strain Q. C; for MIC, C. parapsilosis Q. C.: C. parapsilosis strain Q. C.; for MIC, Candida albicans 1.549: Candida albicans strain 1.549; for MIC, Candida albicans A 26: Candida albicans strain A 26; for MIC, Candida albicans Y-01-19: Candida albicans strain Y-01-19
[4] = tested on: A. fumigatus s 1008; assay: In vitro MIC, NCCLS M38P broth method (RPMI 1640/MOPS pH7), Aspergillus fumigatus; format: cell-based; conditions: A. fumigatus strain 1008

## O=c1n(-c2ccc(N3CCN(c4ccc(Cl)cc4)CC3)cc2)cnn1CC(O)(Cn1cncn1)c1ccc(F)cc1F (stereo not shown) [Compound 47, 2-[2-(2,4-Difluorophenyl)-2-hydroxy-3-(1H-1,2,4-triazol-1-yl)propyl]-4-{4-[4-(4-chlorophenyl)-1-piperazinyl]phenyl}-3-(2H,4H)-1,2,4-triazolone]
[1]
  MIC, C. neoformans I: <0.02
  MIC, C. neoformans M 106: 0.40
[2]
  MIC, H. capsulatum: 0.05 µg/mL (≈ 0.0843 µM)
[3]
  MIC, C. glabrata 90030: 3.12
  MIC, C. krusei 766-1: 1.56
  MIC, C. krusei Q. C: 1.56
  MIC, C. parapsilosis Q. C.: <0.02
  MIC, Candida albicans 1.549: 0.20
  MIC, Candida albicans A 26: <0.02
  MIC, Candida albicans Y-01-19: 0.20
  MIC, Candida tropicalis ATCC: <0.02
other
  melting point: 207 to 208 °C
[4]
  MIC, A. fumigatus 1008: 3.12

## Cc1ccc(Cl)cc1N1CCN(c2ccc(-n3cnn(CC(O)(Cn4cncn4)c4ccc(F)cc4F)c3=O)cc2)CC1 (stereo not shown) [Compound 48, 2-[2-(2,4-Difluorophenyl)-2-hydroxy-3-(1H-1,2,4-triazol-1-yl)propyl]-4-{4-[4-(5-chloro-2-methylphenyl)-1-piperazinyl]phenyl}-3-(2H,4H)-1,2,4-triazolone]
[1]
  MIC, C. neoformans I: <0.03
  MIC, C. neoformans M 106: 0.06
[2]
  MIC, H. capsulatum: 0.25 µg/mL (≈ 0.412 µM)
[3]
  MIC, C. glabrata 90030: 1.00
  MIC, C. krusei 766-1: 1.00
  MIC, C. krusei Q. C: 0.50
  MIC, C. parapsilosis Q. C.: 0.12
  MIC, Candida albicans 1.549: 0.50
  MIC, Candida albicans A 26: <0.03
  MIC, Candida albicans Y-01-19: 0.50
  MIC, Candida tropicalis ATCC: <0.03
other
  melting point: 82 to 87 °C
[4]
  MIC, A. fumigatus 1008: >16

## Cc1ccc(N2CCN(c3ccc(-n4cnn(CC(O)(Cn5cncn5)c5ccc(F)cc5F)c4=O)cc3)CC2)cc1Cl (stereo not shown) [Compound 49, 2-[2-(2,4-Difluorophenyl)-2-hydroxy-3-(1H-1,2,4-triazol-1-yl)propyl]-4-{4-[4-(3-chloro-4-methylphenyl)-1-piperazinyl]phenyl}-3-(2H,4H)-1,2,4-triazolone]
[1]
  MIC, C. neoformans I: <0.03
  MIC, C. neoformans M 106: <0.03
[2]
  MIC, H. capsulatum: < 0.03 µg/mL
[3]
  MIC, C. glabrata 90030: 0.25
  MIC, C. krusei 766-1: 0.25
  MIC, C. krusei Q. C: 0.06
  MIC, C. parapsilosis Q. C.: <0.03
  MIC, Candida albicans 1.549: <0.03
  MIC, Candida albicans A 26: <0.03
  MIC, Candida albicans Y-01-19: <0.03
  MIC, Candida tropicalis ATCC: <0.03
other
  melting point: 189 to 201 °C
[4]
  MIC, A. fumigatus 1008: 4.00

## O=c1n(-c2ccc(N3CCN(c4ccc(Cl)cc4Cl)CC3)cc2)cnn1CC(O)(Cn1cncn1)c1ccc(F)cc1F (stereo not shown) [Compound 50, 2-[2-(2,4-Difluorophenyl)-2-hydroxy-3-(1H-1,2,4-triazol-1-yl)propyl]-4-{4-[4-(2,4-dichlorophenyl)-1-piperazinyl]phenyl}-3-(2H,4H)-1,2,4-triazolone]
[1]
  MIC, C. neoformans I: <0.03
  MIC, C. neoformans M 106: <0.03
[2]
  MIC, H. capsulatum: < 0.03 µg/mL
[3]
  MIC, C. glabrata 90030: 0.50
  MIC, C. krusei 766-1: 0.50
  MIC, C. krusei Q. C: 0.25
  MIC, C. parapsilosis Q. C.: <0.03
  MIC, Candida albicans 1.549: 0.12
  MIC, Candida albicans A 26: <0.03
  MIC, Candida albicans Y-01-19: 0.12
  MIC, Candida tropicalis ATCC: <0.03
other
  melting point: 97 to 99 °C
[4]
  MIC, A. fumigatus 1008: 2.00
